Results published in ChEMBL document CHEMBL1123145, “Synthesis of pyrrolizidine alkaloids indicine, intermedine, lycopsamine, and analogues and their N-oxides. Potential antitumor agents” (1985).

Tests used:
Assay type in all cases: functional, Mus musculus
P388 [1] = experiment: Survival rate of the animals determined for antitumor activity against P388 Lymphocytic Leukemia system at a dose of 35 mg/kg
P388 [2] = experiment: Survival rate of the animals determined for antitumor activity against P388 Lymphocytic Leukemia system at a dose of 8.75 mg/kg
P388 [3] = experiment: Number of Survivors determined for antitumor activity against P388 Lymphocytic Leukemia system on day 5 at a dose of 8.75 mg/kg(6 out of 6)
P388 [4] = experiment: Survival rate of the animals determined for antitumor activity against P388 Lymphocytic Leukemia system at a dose of 70 mg/kg
P388 [5] = experiment: Weight difference observed in survivors treated for antitumor activity against P388 Lymphocytic Leukemia system at a dose of 70 mg/kg
P388 [6] = experiment: Weight difference observed in survivors treated for antitumor activity against P388 Lymphocytic Leukemia system at a dose of 8.75 mg/kg
P388 [7] = experiment: Weight difference observed in survivors treated for antitumor activity against P388 Lymphocytic Leukemia system at a dose of 17.5 mg/kg
P388 [8] = experiment: Weight difference observed in survivors treated for antitumor activity against P388 Lymphocytic Leukemia system at a dose of 35 mg/kg
P388 [9] = experiment: Number of Survivors determined for antitumor activity against P388 Lymphocytic Leukemia system on day 5 at a dose of 17.5 mg/kg (6 out of 6)
P388 [10] = experiment: Number of Survivors determined for antitumor activity against P388 Lymphocytic Leukemia system on day 5 at a dose of 35 mg/kg (6 out of 6)
P388 [11] = experiment: Number of Survivors determined for antitumor activity against P388 Lymphocytic Leukemia system on day 5 at a dose of 70 mg/kg(6 out of 6)
P388 [12] = experiment: Survival rate of the animals determined for antitumor activity against P388 Lymphocytic Leukemia system at a dose of 17.5 mg/kg
P388 [13] = experiment: Weight difference observed in survivors treated for antitumor activity against P388 Lymphocytic Leukemia system at a dose of 96 mg/kg
P388 [14] = experiment: Survival rate of the animals determined for antitumor activity against P388 Lymphocytic Leukemia system at a dose of 192 mg/kg
P388 [15] = experiment: Weight difference observed in survivors treated for antitumor activity against P388 Lymphocytic Leukemia system at a dose of 24 mg/kg
P388 [16] = experiment: Survival rate of the animals determined for antitumor activity against P388 Lymphocytic Leukemia system at a dose of 24 mg/kg
P388 [17] = experiment: Weight difference observed in survivors treated for antitumor activity against P388 Lymphocytic Leukemia system at a dose of 48 mg/kg
P388 [18] = experiment: Survival rate of the animals determined for antitumor activity against P388 Lymphocytic Leukemia system at a dose of 48 mg/kg
P388 [19] = experiment: Survival rate of the animals determined for antitumor activity against P388 Lymphocytic Leukemia system at a dose of 96 mg/kg

| Compound | T/C (P388 [1]) [%] | T/C (P388 [2]) [%] | Survivors (P388 [3]) | T/C (P388 [4]) [%] | T-C (P388 [5]) | T-C (P388 [6]) | T-C (P388 [7]) | T-C (P388 [8]) | Survivors (P388 [9]) | Survivors (P388 [10]) | Survivors (P388 [11]) | T/C (P388 [12]) [%] | T-C (P388 [13]) | T/C (P388 [14]) [%] | T-C (P388 [15]) | T/C (P388 [16]) [%] | T-C (P388 [17]) | T/C (P388 [18]) [%] | T/C (P388 [19]) [%] |
| --- | --- | --- | --- | --- | --- | --- | --- | --- | --- | --- | --- | --- | --- | --- | --- | --- | --- | --- | --- |
| O=C(OCC1=CC[N+]2([O-])CC[C@@H](O)C12)c1ccccc1 (some centres undefined) | 109 | 107 | 6 | 118 | -1 | -0.4 | -0.7 | -0.1 | 6 | 6 | 6 | 110 | – | – | – | – | – | – | – |
| CC(C)C(O)(C(=O)OCC1=CC[N+]2([O-])CC[C@@H](O)C12)C(C)O (stereo in doubt; form 1) | – | – | – | – | – | – | – | – | – | – | – | – | -0.3 | 123 | 0 | 107 | -0.6 | 114 | 114 |
